Measured values taken from ChEMBL document CHEMBL5465560, “Selectivity Literature for EUbOPEN Chemogenomic Library” (2024).

What was measured:
[1] = target: Tyrosine-protein kinase Srms (Homo sapiens) (UniProt Q9H3Y6); assay: Selectivity interaction (Ambit KINOMEscan and KiNATiv profiling in Jurkat cells) EUB0000090b SRMS; assay type: cell-based; settings: at 1 µM
[2] = target: Dual specificity tyrosine-phosphorylation-regulated kinase 1A (Homo sapiens, UniProt Q13627); assay: Selectivity interaction (Kinase panel (DSF assay)) EUB0001559a DYRK1A
[3] = target: Mitogen-activated protein kinase 14 (Homo sapiens, UniProt Q16539); assay: Selectivity interaction (Enzymatic assay) EUB0001199aCl MAPK14
Sequence of Mitogen-activated protein kinase 14 (Q16539 whole entry): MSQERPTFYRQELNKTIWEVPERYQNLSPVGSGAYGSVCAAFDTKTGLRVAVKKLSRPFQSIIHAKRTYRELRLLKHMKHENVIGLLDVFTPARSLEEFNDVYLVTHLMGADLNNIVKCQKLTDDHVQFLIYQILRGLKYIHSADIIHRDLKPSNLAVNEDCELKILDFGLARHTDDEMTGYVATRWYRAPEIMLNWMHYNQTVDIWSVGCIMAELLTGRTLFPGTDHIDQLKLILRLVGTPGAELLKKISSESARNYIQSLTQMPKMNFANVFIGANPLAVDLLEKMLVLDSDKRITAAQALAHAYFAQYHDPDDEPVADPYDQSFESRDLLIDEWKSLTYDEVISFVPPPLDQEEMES

[4] = target: Fibroblast growth factor receptor 1 (Homo sapiens, UniProt P11362); assay: Selectivity interaction (KinomeScan (DiscoverX)) EUB0000655a FGFR1; settings: at 10 µM
Sequence of Fibroblast growth factor receptor 1 (P11362 22-822 limits assumed): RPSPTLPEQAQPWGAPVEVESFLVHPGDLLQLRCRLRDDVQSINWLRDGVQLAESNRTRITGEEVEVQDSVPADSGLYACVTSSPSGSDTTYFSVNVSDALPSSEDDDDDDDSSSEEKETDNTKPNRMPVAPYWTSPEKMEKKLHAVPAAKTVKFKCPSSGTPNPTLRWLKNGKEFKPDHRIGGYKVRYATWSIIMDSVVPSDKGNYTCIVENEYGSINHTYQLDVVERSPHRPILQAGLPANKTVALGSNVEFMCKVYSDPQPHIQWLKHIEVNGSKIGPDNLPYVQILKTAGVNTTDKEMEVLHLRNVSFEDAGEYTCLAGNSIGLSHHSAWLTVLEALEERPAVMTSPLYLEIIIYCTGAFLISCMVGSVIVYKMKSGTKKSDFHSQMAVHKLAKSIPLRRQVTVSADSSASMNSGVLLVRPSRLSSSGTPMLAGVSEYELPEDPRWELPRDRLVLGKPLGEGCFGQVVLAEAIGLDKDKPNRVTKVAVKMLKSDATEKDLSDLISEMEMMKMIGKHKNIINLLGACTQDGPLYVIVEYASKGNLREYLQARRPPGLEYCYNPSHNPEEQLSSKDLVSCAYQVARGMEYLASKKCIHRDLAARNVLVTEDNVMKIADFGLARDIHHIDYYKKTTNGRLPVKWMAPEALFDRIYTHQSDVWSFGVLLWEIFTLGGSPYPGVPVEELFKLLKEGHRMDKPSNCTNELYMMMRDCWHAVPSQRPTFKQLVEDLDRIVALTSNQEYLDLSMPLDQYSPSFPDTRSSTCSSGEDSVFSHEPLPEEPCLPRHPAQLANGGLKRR

[5] = target: T1, Activin receptor type-1B (Homo sapiens) (UniProt P36896); assay: Selectivity interaction (KinomeScan (DiscoverX)) EUB0000655a ACVR1B; settings: at 10 µM
T1 sequence (whole entry): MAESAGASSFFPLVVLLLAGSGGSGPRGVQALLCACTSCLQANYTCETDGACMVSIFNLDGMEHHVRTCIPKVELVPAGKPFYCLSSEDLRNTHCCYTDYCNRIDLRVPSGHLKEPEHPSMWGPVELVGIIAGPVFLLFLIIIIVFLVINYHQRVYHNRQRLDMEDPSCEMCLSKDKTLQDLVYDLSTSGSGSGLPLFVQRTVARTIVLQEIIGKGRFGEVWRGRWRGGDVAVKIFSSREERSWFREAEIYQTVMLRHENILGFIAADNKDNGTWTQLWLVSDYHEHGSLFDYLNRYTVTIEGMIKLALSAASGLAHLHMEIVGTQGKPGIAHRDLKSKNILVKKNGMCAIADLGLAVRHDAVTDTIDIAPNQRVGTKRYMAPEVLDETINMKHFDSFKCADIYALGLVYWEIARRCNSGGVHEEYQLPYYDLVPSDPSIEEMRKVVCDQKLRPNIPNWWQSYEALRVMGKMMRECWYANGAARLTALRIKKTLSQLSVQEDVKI

[6] = target: Ribosomal protein S6 kinase alpha-4 (Homo sapiens) (UniProt O75676); assay: Selectivity interaction (KinomeScan (DiscoverX)) EUB0001079a RPS6KA4; settings: at 1 µM
Sequence of Ribosomal protein S6 kinase alpha-4 (Homo sapiens) (O75676 whole entry, looked up): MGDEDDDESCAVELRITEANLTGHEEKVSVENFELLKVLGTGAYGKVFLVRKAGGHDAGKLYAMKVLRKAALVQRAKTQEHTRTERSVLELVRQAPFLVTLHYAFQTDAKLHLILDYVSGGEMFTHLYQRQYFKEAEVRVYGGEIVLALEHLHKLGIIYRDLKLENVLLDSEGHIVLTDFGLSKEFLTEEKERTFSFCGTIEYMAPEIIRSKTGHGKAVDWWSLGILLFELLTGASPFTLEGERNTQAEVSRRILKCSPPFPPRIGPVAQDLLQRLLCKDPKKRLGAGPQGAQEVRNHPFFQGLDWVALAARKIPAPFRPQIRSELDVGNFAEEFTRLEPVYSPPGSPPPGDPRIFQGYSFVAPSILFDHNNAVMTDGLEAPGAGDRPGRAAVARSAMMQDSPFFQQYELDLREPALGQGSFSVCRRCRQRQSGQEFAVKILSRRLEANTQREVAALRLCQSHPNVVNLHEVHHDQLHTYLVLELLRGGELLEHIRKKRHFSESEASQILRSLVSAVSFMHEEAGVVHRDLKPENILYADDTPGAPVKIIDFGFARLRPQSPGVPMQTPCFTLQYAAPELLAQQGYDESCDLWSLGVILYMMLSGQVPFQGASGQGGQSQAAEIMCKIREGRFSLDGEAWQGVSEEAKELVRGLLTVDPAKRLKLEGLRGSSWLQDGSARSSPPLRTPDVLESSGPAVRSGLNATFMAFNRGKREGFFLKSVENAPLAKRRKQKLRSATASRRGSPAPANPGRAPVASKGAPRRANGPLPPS

[7] = target: T2, Serine/threonine-protein kinase ULK3 (Homo sapiens) (UniProt Q6PHR2); assay: Selectivity interaction (ActivX KiNativ screen (kinase selectivity in THP-1 cell lysates)) EUB0000639a ULK3; assay type: subcellular; settings: lysate, at 0.2 µM
T2 sequence (whole entry): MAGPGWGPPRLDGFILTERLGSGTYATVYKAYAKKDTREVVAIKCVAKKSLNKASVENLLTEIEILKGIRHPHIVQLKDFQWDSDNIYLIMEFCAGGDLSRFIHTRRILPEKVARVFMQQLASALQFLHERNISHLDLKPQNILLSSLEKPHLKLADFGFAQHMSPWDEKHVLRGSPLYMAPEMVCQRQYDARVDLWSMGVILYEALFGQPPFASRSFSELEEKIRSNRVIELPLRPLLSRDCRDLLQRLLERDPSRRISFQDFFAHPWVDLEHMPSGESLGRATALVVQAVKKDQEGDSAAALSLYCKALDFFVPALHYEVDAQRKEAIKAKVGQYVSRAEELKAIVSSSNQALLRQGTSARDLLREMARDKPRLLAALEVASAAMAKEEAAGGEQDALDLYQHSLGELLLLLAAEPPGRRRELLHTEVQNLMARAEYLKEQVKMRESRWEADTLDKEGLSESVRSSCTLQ

[8] = target: Dual specificity mitogen-activated protein kinase kinase 1 (Homo sapiens, UniProt Q02750); assay: Selectivity interaction (Kinase panel (Invitrogen)) EUB0000639a MAP2K1; settings: at 200 nM
Sequence of Dual specificity mitogen-activated protein kinase kinase 1 (Q02750 whole entry): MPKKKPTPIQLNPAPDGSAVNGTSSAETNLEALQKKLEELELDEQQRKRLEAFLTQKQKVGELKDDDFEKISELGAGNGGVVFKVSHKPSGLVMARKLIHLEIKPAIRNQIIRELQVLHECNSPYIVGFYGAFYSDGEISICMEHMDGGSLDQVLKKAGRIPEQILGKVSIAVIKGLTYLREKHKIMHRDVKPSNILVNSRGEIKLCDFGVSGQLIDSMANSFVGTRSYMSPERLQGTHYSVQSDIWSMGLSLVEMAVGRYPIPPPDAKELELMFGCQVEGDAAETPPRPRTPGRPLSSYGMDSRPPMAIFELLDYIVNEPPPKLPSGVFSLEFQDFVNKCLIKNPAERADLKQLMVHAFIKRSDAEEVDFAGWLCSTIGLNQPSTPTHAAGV

[9] = target: Ribosomal protein S6 kinase beta-2 (Homo sapiens) (UniProt Q9UBS0); assay: Selectivity interaction (ActivX KiNativ screen (kinase selectivity in THP-1 cell lysates)) EUB0000639a RPS6KB2; assay type: subcellular; settings: lysate
Sequence of Ribosomal protein S6 kinase beta-2 (Homo sapiens) (Q9UBS0 whole entry): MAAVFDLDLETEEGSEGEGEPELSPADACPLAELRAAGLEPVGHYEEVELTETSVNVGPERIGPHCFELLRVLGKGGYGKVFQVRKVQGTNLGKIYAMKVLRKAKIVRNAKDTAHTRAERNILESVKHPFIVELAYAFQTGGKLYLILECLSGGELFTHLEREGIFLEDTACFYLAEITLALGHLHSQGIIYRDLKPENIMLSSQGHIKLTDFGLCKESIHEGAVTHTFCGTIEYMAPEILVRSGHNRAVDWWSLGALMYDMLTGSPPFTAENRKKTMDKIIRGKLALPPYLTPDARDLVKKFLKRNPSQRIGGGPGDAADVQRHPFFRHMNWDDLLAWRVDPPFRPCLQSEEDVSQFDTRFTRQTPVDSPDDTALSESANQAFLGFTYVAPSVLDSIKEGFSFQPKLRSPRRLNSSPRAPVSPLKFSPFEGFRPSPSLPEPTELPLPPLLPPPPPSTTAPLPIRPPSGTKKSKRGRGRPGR

[10] = target: Tyrosine-protein kinase JAK2 (Homo sapiens, UniProt O60674); assay: Selectivity interaction (Kinase panel (Invitrogen)) EUB0000639a JAK2; settings: at 200 nM
Sequence of Tyrosine-protein kinase JAK2 (O60674 whole entry): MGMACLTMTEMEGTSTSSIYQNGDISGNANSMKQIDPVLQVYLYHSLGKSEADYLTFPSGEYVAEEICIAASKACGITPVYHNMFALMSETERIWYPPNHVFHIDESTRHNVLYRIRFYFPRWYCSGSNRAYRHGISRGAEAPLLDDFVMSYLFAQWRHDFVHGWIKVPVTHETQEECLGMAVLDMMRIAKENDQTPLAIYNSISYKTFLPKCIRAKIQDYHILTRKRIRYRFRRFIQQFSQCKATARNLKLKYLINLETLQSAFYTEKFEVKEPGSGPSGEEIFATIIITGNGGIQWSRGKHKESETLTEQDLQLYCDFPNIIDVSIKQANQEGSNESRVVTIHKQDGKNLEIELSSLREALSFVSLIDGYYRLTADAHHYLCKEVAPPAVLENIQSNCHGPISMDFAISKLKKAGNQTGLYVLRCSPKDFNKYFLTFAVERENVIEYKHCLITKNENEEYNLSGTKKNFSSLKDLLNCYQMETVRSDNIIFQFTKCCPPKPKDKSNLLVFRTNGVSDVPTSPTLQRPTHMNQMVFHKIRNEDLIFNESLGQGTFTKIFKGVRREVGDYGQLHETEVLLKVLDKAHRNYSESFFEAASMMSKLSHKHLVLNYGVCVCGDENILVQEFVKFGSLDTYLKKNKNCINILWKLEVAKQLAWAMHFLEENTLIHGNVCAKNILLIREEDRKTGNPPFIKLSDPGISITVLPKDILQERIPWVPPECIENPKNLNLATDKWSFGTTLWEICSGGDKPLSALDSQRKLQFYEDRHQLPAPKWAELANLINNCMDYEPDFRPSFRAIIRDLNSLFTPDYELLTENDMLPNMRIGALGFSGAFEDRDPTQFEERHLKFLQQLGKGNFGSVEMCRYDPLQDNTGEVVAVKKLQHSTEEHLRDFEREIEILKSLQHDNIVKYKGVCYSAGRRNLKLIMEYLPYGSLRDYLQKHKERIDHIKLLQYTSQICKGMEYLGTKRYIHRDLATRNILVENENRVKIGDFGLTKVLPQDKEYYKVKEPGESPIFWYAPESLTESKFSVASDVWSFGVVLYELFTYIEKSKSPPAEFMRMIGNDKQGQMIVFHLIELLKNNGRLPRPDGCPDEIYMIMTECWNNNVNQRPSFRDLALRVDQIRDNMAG

[11] = test system: Epidermal growth factor receptor (Homo sapiens), P00533 [UNDEFINED MUTATION]; assay: Selectivity interaction (KinomeScan (DiscoverX)) EUB0000229b EGFR; settings: at 1 µM
[12] = target: T3, Discoidin domain-containing receptor 2 (Homo sapiens) (UniProt Q16832); assay: Selectivity interaction (KinomeScan (DiscoverX)) EUB0000666a DDR2; settings: at 10 µM
T3 sequence (whole entry): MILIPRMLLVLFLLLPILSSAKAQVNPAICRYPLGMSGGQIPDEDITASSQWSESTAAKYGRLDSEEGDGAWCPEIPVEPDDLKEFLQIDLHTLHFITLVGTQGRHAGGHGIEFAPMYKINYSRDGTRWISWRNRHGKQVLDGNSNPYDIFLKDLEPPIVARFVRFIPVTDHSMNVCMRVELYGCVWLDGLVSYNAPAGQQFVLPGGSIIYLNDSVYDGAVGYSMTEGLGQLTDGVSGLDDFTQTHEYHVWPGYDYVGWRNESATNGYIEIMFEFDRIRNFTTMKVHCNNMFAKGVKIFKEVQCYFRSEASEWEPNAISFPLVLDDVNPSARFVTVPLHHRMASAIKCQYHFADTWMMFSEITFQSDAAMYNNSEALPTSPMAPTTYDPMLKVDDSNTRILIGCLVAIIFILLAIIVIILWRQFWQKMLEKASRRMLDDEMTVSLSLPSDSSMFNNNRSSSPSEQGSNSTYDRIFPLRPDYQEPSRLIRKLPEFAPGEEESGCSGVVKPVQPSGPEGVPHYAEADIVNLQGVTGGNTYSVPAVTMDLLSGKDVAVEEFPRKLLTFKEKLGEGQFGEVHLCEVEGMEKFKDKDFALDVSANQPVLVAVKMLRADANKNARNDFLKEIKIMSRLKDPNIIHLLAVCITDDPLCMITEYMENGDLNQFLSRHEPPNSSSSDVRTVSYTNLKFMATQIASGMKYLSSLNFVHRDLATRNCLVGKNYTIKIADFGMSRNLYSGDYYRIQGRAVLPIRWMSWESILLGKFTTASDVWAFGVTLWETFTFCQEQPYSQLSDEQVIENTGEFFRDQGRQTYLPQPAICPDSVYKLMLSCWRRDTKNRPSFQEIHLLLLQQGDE

[13] = target: Insulin receptor-related protein (Homo sapiens) (UniProt P14616); assay: Selectivity interaction (KinomeScan (DiscoverX)) EUB0000666a INSRR; settings: at 10 µM
[14] = target: Serine/threonine-protein kinase WNK1 (Homo sapiens) (UniProt Q9H4A3); assay: Selectivity interaction (KinomeScan (DiscoverX)) EUB0000695a WNK1; settings: at 100 nM

Sequence of Tyrosine-protein kinase Srms (Homo sapiens) (Q9H3Y6 whole entry): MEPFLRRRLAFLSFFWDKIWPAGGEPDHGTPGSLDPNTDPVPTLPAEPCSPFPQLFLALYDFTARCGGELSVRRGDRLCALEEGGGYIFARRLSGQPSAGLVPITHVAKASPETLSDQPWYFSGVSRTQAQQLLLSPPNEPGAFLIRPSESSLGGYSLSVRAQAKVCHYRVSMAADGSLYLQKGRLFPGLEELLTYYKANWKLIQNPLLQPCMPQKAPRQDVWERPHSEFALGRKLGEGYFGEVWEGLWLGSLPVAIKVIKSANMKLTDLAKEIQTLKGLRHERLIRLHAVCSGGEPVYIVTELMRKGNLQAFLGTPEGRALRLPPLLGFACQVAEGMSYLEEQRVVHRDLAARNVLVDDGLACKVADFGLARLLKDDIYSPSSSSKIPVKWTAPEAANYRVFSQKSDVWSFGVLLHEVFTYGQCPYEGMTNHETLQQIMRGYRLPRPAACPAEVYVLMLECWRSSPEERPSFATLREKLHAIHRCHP

SMILES: CN(C)C/C=C/C(=O)Nc1ccc(C(=O)N2CCCC(Nc3ncc(Cl)c(-c4c[nH]c5ccccc45)n3)C2)cc1 (stereo not drawn)
- % of control [1]: 99%

SMILES: CN(C(=O)c1cnn2cccnc12)c1cc2c(cc1N1CCOCC1)C(=O)N(C[C@@H](F)C(C)(C)O)C2
- dTM [2]: -0.3 K

SMILES: CN1Cc2nccc(-c3cn(C)nc3-c3ccc(F)cc3)c2C1=O
- IC50 [3]: 0.861 µM

SMILES: CN(C)CCOc1ccc(-c2nc(-c3ccncc3)c(-c3ccc4c(c3)CC/C4=N\O)[nH]2)cc1
- % of control [4]: 99%
- % of control [5]: 40%

SMILES: Nc1cnc(N2CCc3cc(S(=O)(=O)Nc4c(F)cc(Cl)cc4F)cc(N4CCCC4=O)c32)nc1 [TP-020n]
- % of control [6]: 96%

SMILES: CC[C@@H]1[C@H](F)C(=O)N[C@@H]1COc1nccc2cc(C(N)=O)c(OC)cc12 [ZIMLOVISERTIB]
- % of inhibition [7]: -8.1%
- % of inhibition [8]: 9.31%
- % of inhibition ([9]; at 0.01 µM): -0.4%
- % of inhibition ([9]; at 0.04 µM): 9.9%
- % of inhibition ([9]; at 0.2 µM): -6.2%
- % of inhibition ([9]; at 1 µM): -5.5%
- % of inhibition ([9]; at 5 µM): 3.9%
- % of inhibition [10]: 15.4%

SMILES: COc1cc(N(C)c2ccnc3ccc(C(F)(F)F)cc23)cc(OC)c1OC
- % binding [11]: 92%

SMILES: O=C(NOC[C@H](O)CO)c1ccc(F)c(F)c1Nc1ccc(I)cc1F
- % of control [12]: 100%
- % of control [13]: 81%

SMILES: Cc1cc(F)c(C(=O)Nc2cccc(-c3nncn3C(C)C)n2)cc1-n1cnc(C2CC2)c1
- % of control [14]: 100%
